This is an account of results in patent US12595230B2, “Substituted 6,7-dihydro-5H-benzo[7]annulene compounds and their derivatives, processes for their preparation and therapeutic uses thereof” (Sanofi, priority 2020, dated 2026).

This test deals with T1, ERα (Homo sapiens, UniProt P03372).
T1 construct: host or cells: MCF7
T1 sequence (P03372 1-595): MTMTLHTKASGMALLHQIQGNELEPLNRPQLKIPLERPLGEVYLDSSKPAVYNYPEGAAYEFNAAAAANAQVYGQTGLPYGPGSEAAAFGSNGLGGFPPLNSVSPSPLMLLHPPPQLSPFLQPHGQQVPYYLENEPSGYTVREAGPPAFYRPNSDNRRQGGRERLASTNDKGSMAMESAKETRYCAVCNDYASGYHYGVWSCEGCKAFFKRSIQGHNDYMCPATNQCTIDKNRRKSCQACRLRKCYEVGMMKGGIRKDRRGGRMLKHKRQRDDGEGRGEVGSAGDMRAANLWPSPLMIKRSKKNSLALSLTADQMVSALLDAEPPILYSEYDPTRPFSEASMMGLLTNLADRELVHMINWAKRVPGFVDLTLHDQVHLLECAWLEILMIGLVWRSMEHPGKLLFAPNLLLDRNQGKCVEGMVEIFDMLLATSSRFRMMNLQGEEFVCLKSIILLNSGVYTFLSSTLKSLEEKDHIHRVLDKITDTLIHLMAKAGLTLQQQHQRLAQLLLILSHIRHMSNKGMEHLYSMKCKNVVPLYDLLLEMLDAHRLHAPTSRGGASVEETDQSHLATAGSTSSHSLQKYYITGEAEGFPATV
The experiment in a line: Estrogen receptor degradation activity: breast cancer cell ERα in cell western assay (MCF7 cells). To be noted: for % Degradation At 0.3 μM: 4 hours, relative to fulvestrant 0.1 μM positive control; for DC50 / IC50: 4 hours post compound addition, concentration which degrades 50% of the estrogen receptor; for DC50: read-out: Degradation IC50. It is filed as cell-based. How it is done: Test: Estrogen Receptor Degradation Activity Said test involves measuring the in vitro degradation activity of the compounds of the Table 1a. The measurements of the degradation activities were made using a breast cancer cell ERα in cell western assay as described hereunder. MCF7 cells (ATCC) were seeded in 384 wells microplate (collagen coated) at a concentration of 10000 cells/30 μL per well in red phenol free MEM alpha medium (invitrogen) containing 5% charcoal dextran striped FBS. The following day, 9 points serial 1:5 dilution of each compound was added to the cells in 2.5p L at final concentrations ranging from 0.3-0.0000018 μM (in table 2), or 0.1 μM for fulvestrant (using as positive control). At 4 hours post compound addition the cells were fixed by adding 25 μL of formalin (final concentration 5% formalin containing 0.1% triton) for 10 minutes at room temperature and then washed twice with PBS. Then, 50 μL of LI-COR blocking buffer containing 0.1% Triton was added to plate for 30 minutes at room temperature. LI-COR blocking buffer was removed and cells were incubated overnight at cold room with 50 μL anti-ER rabbit monoclonal antibody (Thermo scientific MA1-39540) diluted at 1:1000 in LI-COR blocking buffer containing 0.1% tween-20. Wells which were treated with blocking buffer but no antibody were used as background control. Wells were washed twice with PBS (0.1% tween-20) and incubated at 37° C. for 60 minutes in LI-COR (0.1% tween-20) containing goat anti-rabbit antibody Alexa 488 (1:1000) and Syto-64 a DNA dye (2 μM final concentration). Cells were then washed 3 times in PBS and scanned in ACUMEN explorer (TTP-Labtech). Integrated intensities in the green fluorescence and red fluorescence were measured to determine the levels of ERα and DNA respectively. The degradation activity with respect to estrogen receptors in this test is given by the concentration which degrades 50% of the estrogen receptor (or IC50) in nM. […] DMSO−fulvestrant)).

For `O=C(O)c1ccc2c(c1)CCCC(C1CC3CCC1C3)=C2c1ccc(CC2CN(CCCF)C2)cc1` (mixture of isomers) [Example 307, 8-(bicyclo[2.2.1]heptan-2-yl)-9-(4-((1-(3-fluoropropyl)azetidin-3-yl)methyl)phenyl)-6,7-dihydro-5H-benzo[7]annulene-3-carboxylic acid], the “% Degradation At 0.3 μM” value is 84% and the DC50 was 0.4 nM.
For the molecule `N#Cc1cc2c(cc1C(=O)O)CCCC(c1ccc(Cl)cc1Cl)=C2c1ccc(CC2CN(CCCF)C2)cc1` [Example 245, 2-cyano-8-(2,4-dichlorophenyl)-9-(4-((1-(3-fluoropropyl)azetidin-3-yl)methyl)phenyl)-6,7-dihydro-5H-benzo[7]annulene-3-carboxylic acid], the “% Degradation At 0.3 μM” value is 100% and the DC50 was found to be 269 nM.
For `Cl.O=C(O)c1ccc2c(c1)CCCC(c1ccc(Cl)cc1F)=C2c1ccc(CC2CN(CCCF)C2)cc1` [Example 12, 8-(4-chloro-2-fluorophenyl)-9-(4-((1-(3-fluoropropyl)azetidin-3-yl)methyl)phenyl)-6,7-dihydro-5H-benzo[7]annulene-3-carboxylic acid], the “% Degradation At 0.3 μM” value turned out to be 93% and the DC50 came out at 0.4 nM.
The IC50 is the concentration needed to halve the response being measured. For `Cc1c(Cl)cccc1C1=C(c2ccc(CC3CN(CCCF)C3)cc2)c2ccc(C(=O)O)cc2CCC1.Cl` [Example 212, 8-(3-chloro-2-methylphenyl)-9-(4-((1-(3-fluoropropyl)azetidin-3-yl)methyl)phenyl)-6,7-dihydro-5H-benzo[7]annulene-3-carboxylic acid hydrochloride], the “% Degradation At 0.3 μM” value was found to be 87% and 0.1 nM corresponded to half-maximal inhibition (IC50).
Turning to `O=C(O)c1ccc2c(c1)CCCC(c1c(F)cccc1Cl)=C2c1ccc(CC2CN(CCCF)C2)cc1` [Example 220, 8-(2-chloro-6-fluorophenyl)-9-(4-((1-(3-fluoropropyl)azetidin-3-yl)methyl)phenyl)-6,7-dihydro-5H-benzo[7]annulene-3-carboxylic acid], the “% Degradation At 0.3 μM” value was determined as 87% and the DC50 is 0.3 nM.
For `O=C(O)c1ccc2c(c1)CCCC(c1ccc(Cl)cc1Cl)=C2c1ccc(CC2CN(CCCF)C2)c(F)c1` [Example 239, 8-(2,4-dichlorophenyl)-9-(3-fluoro-4-((1-(3-fluoropropyl)azetidin-3-yl)methyl)phenyl)-6,7-dihydro-5H-benzo[7]annulene-3-carboxylic acid], in that order: 93% and 0.4 nM.
With `O=C(O)c1ccc2c(c1)CCCC(c1cccc(Cl)c1C(F)(F)F)=C2c1ccc(CC2CN(CCCF)C2)cc1` [Example 226, 8-(3-chloro-2-(trifluoromethyl)phenyl)-9-(4-((1-(3-fluoropropyl)azetidin-3-yl)methyl)phenyl)-6,7-dihydro-5H-benzo[7]annulene-3-carboxylic acid], the “% Degradation At 0.3 μM” value turned out to be 90% and the IC50 was determined as 0.1 nM.
With `O=C(O)c1ccc2c(c1)CCCC(c1ccc(Cl)cc1C(F)F)=C2c1ccc(CC2CN(CCCF)C2)cc1` [Example 221, 8-(4-chloro-2-(difluoromethyl)phenyl)-9-(4-((1-(3-fluoropropyl)azetidin-3-yl)methyl)phenyl)-6,7-dihydro-5H-benzo[7]annulene-3-carboxylic acid], the “% Degradation At 0.3 μM” value was determined as 91% and the DC50 is 0.2 nM.
Taken in the same sequence, the figures for `O=C(O)c1ccc2c(c1)CCCC(c1ncc(Cl)cc1F)=C2c1ccc(CC2CN(CCCF)C2)cc1` [Example 219, 8-(5-chloro-3-fluoropyridin-2-yl)-9-(4-((1-(3-fluoropropyl)azetidin-3-yl)methyl)phenyl)-6,7-dihydro-5H-benzo[7]annulene-3-carboxylic acid] were 92% and 6.5 nM.
For the molecule `O=C(O)c1ccc2c(c1)CCCC(c1ncc(Cl)cc1C(F)(F)F)=C2c1ccc(CC2CN(CCC(F)F)C2)cc1` [Example 291, 8-(5-chloro-3-(trifluoromethyl)pyridin-2-yl)-9-(4-((1-(3,3-difluoropropyl)azetidin-3-yl)methyl)phenyl)-6,7-dihydro-5H-benzo[7]annulene-3-carboxylic acid], the “% Degradation At 0.3 μM” value is recorded as 84% and the DC50 was 0.8 nM.
Taken in the same sequence, the figures for `O=C(O)c1ccc2c(c1)SCC(c1ccc(Cl)cc1Cl)=C2c1ccc(CC2CN(CCCF)C2)cc1` [Example 308, 3-(2,4-dichlorophenyl)-4-(4-((1-(3-fluoropropyl)azetidin-3-yl)methyl)phenyl)-2H-thiochromene-7-carboxylic acid] were 94% and 1.4 nM.
For `Cc1cccc(C2=C(c3ccc(CC4CN(CCCF)C4)cc3)c3ccc(C(=O)O)cc3CCC2)c1C(F)(F)F.Cl` [Example 313, 9-(4-((1-(3-fluoropropyl)azetidin-3-yl)methyl)phenyl)-8-(3-methyl-2-(trifluoromethyl)phenyl)-6,7-dihydro-5H-benzo[7]annulene-3-carboxylic acid hydrochloride], in that order: 90% and 0.3 nM.
Taken in the same sequence, the figures for `COc1c(C(=O)O)ccc2c1CCCC(c1ccc(F)cc1C)=C2c1ccc(CC2CN(CCCF)C2)cc1` [Example 269, 8-(4-fluoro-2-methylphenyl)-9-(4-((1-(3-fluoropropyl)azetidin-3-yl)methyl)phenyl)-4-methoxy-6,7-dihydro-5H-benzo[7]annulene-3-carboxylic acid] were 100% and 180 nM.
On to `CC(O)(c1ccc(C2=C(c3ccc(Cl)cc3Cl)CCCc3cc(C(=O)O)ccc32)cc1)C1CN(CCCF)C1.Cl` (single isomer, unassigned; isomer 1) [Example 235, 8-(2,4-dichlorophenyl)-9-(4-(1-(1-(3-fluoropropyl)azetidin-3-yl)-1-hydroxyethyl)phenyl)-6,7-dihydro-5H-benzo[7]annulene-3-carboxylic acid, Hydrochloride Isomer 1], for which the “% Degradation At 0.3 μM” value is on record as 62% and the DC50 amounted to 4.5 nM.
For `O=C(O)c1ccc2c(c1)CCCC(c1nc(Cl)ccc1C(F)(F)F)=C2c1ccc(CC2CN(CCCF)C2)cc1` [Example 300, 8-(6-chloro-3-(trifluoromethyl)pyridin-2-yl)-9-(4-((1-(3-fluoropropyl)azetidin-3-yl)methyl)phenyl)-6,7-dihydro-5H-benzo[7]annulene-3-carboxylic acid], in that order: 88% and 11.2 nM.
For `O=C(O)c1ccc2c(c1)CCCC(C1C[C@H]3CCC[C@H]3C1)=C2c1ccc(CC2CN(CCCF)C2)cc1` (single isomer, unassigned) [Example 336, 9-(4-((1-(3-fluoropropyl)azetidin-3-yl)methyl)phenyl)-8-(octahydropentalen-2-yl)-6,7-dihydro-5H-benzo[7]annulene-3-carboxylic acid], the “% Degradation At 0.3 μM” value worked out at 86% and the DC50 worked out at 0.9 nM.
For `COc1ncc(C2=C(c3ccc(CC4CN(CCCF)C4)cc3)c3ccc(C(=O)O)cc3CCC2)cc1C(F)(F)F` [Example 306, 9-(4-((1-(3-fluoropropyl)azetidin-3-yl)methyl)phenyl)-8-(6-methoxy-5-(trifluoromethyl)pyridin-3-yl)-6,7-dihydro-5H-benzo[7]annulene-3-carboxylic acid], in that order: 82% and 25.8 nM.
